Measured values: US12478624B2, “Heterocyclic derivatives, pharmaceutical compositions and their use in the treatment or amelioration of cancer” (Tolremo Therapeutics AG, priority 2019, dated 2025)

How the values were obtained:
OPM-2 = assay: Assay 2: multiple myeloma cellular efficacy, PrestoBlue cell proliferation/survival; format: cell-based; conditions: Homo sapiens, 96 h, OPM-2 cells, 4 days
In short: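 Cells seeded at 10000/well and exposed to a compound dose range or vehicle for 4 days, then stained with PrestoBlue for 2 h at 37 °C. Fluorescence was background-subtracted and normalized to vehicle; EC50 came from a four-parameter variable-slope fit against log concentration.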

ATAD2A = biological target: T1, ATAD2A (Homo sapiens, UniProt Q6PL18); assay: BromoKdMAX (BROMOscan, DiscoverX); format: binding
T1 construct: T7 phage strains displaying bromodomains were grown in parallel; purchased DiscoverX; host or cells: T7 phage in an E. coli host derived from the BL21 strain
T1 sequence (Q6PL18 980-1092 limits assumed): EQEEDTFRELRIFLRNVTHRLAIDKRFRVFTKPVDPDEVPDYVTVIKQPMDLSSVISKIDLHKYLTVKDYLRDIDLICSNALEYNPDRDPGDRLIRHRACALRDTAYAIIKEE
Protocol: (§1) A BromoKdMAX was performed at DiscoverX.
(§2) BROMOscan™ is a novel industry leading platform for identifying small molecule bromodomain inhibitors. Based on proven KINOMEscan™ technology, BROMOscan™ employs a proprietary ligand binding site-directed competition assay to quantitatively measure interactions between test compounds and bromodomains. This robust and reliable assay panel is suitable for high throughput screening and delivers quantitative ligand binding data to facilitate the identification and optimization of potent and selective small molecule bromodomain inhibitors.
(§3) For the Bromodomain assays, T7 phage strains displaying bromodomains were grown in parallel in 24-well blocks in an E. coli host derived from the BL21 strain. E. coli were grown to log-phase and infected with T7 phage from a frozen stock (multiplicity of infection=0.4) and incubated with shaking at 32° C. until lysis (90-150 minutes). The lysates were centrifuged (5,000×g) and filtered (0.2 μm) to remove cell debris. […] The liganded beads were blocked with excess biotin and washed with blocking buffer (SeaBlock (Pierce), 1% BSA, 0.05% Tween 20, 1 mM DTT) to remove unbound ligand and to reduce non-specific phage binding. […] Test compounds were prepared as 1000× stocks in 100% DMSO. Kds were determined using an 11-point 3-fold compound dilution series with one DMSO control point. […] The compounds were then diluted directly into the assays such that the final concentration of DMSO was 0.09%. All reactions performed in polypropylene 384-well plates. Each was a final volume of 0.02 ml. […] The bromodomain concentration in the eluates was measured by qPCR.

ATAD2B = biological target: T2, ATAD2B (Homo sapiens, UniProt Q9ULI0); assay: BromoKdMAX (BROMOscan, DiscoverX); format: binding
T2 construct: T7 phage strains displaying bromodomains were grown in parallel; purchased DiscoverX; host or cells: T7 phage in an E. coli host derived from the BL21 strain
T2 sequence (Q9ULI0 951-1066 limits assumed): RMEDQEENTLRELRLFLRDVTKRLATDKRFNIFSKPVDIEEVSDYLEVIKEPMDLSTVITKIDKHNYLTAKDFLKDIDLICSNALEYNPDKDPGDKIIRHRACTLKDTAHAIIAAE
Protocol: as §1, §2, §3

BAZ2A = biological target: T3, BAZ2A (Homo sapiens, UniProt Q9UIF9); assay: BromoKdMAX (BROMOscan, DiscoverX); format: binding
T3 construct: T7 phage strains displaying bromodomains were grown in parallel; purchased DiscoverX; host or cells: T7 phage in an E. coli host derived from the BL21 strain
T3 sequence (Q9UIF9 1793-1897 limits assumed): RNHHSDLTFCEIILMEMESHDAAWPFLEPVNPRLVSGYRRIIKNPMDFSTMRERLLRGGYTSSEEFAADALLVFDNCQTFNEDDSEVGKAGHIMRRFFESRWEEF
Protocol: as §1, §2, §3

BAZ2B = biological target: T4, BAZ2B (Homo sapiens, UniProt Q9UIF8); assay: BromoKdMAX (BROMOscan, DiscoverX); format: binding
T4 construct: T7 phage strains displaying bromodomains were grown in parallel; purchased DiscoverX; host or cells: T7 phage in an E. coli host derived from the BL21 strain
T4 sequence (Q9UIF8 2060-2164 limits assumed): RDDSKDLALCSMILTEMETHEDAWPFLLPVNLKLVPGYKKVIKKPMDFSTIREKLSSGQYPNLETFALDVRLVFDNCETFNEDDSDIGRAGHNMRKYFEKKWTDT
Protocol: as §1, §2, §3

BRD1 = biological target: T5, BRD1 (Homo sapiens, UniProt O95696); assay: BromoKdMAX (BROMOscan, DiscoverX); format: binding
T5 construct: T7 phage strains displaying bromodomains were grown in parallel; purchased DiscoverX; host or cells: T7 phage in an E. coli host derived from the BL21 strain
T5 sequence (O95696 562-666 limits assumed): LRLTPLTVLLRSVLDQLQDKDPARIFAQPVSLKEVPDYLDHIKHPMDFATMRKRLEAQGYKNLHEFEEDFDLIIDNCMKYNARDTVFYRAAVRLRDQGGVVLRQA
Protocol: as §1, §2, §3

BRD3(1) = biological target: T6, BRD3(1) (Homo sapiens, UniProt Q15059); assay: BromoKdMAX (BROMOscan, DiscoverX); format: binding
T6 construct: T7 phage strains displaying bromodomains were grown in parallel; purchased DiscoverX; host or cells: T7 phage in an E. coli host derived from the BL21 strain
T6 sequence (Q15059 34-140 limits assumed): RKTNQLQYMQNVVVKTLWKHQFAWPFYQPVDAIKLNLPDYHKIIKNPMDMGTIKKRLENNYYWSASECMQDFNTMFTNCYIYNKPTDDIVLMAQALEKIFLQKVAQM
Protocol: as §1, §2, §3

BRD3(1, 2) = biological target: T7, BRD3(1, 2) (Homo sapiens, UniProt Q15059); assay: BromoKdMAX (BROMOscan, DiscoverX); format: binding
T7 construct: T7 phage strains displaying bromodomains were grown in parallel; purchased DiscoverX; host or cells: T7 phage in an E. coli host derived from the BL21 strain
T7 sequence (Q15059 24-416 limits assumed): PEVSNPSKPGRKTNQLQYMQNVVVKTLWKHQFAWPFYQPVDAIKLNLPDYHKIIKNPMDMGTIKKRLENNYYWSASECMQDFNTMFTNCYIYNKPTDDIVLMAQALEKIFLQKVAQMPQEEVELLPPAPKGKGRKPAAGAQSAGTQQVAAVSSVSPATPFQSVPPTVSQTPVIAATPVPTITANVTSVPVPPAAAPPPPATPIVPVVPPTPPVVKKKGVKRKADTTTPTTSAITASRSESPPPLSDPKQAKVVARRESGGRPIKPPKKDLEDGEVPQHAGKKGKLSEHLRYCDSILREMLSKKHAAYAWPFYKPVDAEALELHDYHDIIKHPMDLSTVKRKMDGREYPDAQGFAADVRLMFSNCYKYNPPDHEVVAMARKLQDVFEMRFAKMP
Protocol: as §1, §2, §3

BRD3(2) = biological target: T8, BRD3(2) (Homo sapiens, UniProt Q15059); assay: BromoKdMAX (BROMOscan, DiscoverX); format: binding
T8 construct: T7 phage strains displaying bromodomains were grown in parallel; purchased DiscoverX; host or cells: T7 phage in an E. coli host derived from the BL21 strain
T8 sequence (Q15059 306-415 limits assumed): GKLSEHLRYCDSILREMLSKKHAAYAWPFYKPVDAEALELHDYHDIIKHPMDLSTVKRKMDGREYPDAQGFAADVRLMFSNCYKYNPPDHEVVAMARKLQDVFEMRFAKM
Protocol: as §1, §2, §3

BRD7 = biological target: T9, BRD7 (Homo sapiens, UniProt Q9NPI1); assay: BromoKdMAX (BROMOscan, DiscoverX); format: binding
T9 construct: T7 phage strains displaying bromodomains were grown in parallel; purchased DiscoverX; host or cells: T7 phage in an E. coli host derived from the BL21 strain
T9 sequence (Q9NPI1 131-235 limits assumed): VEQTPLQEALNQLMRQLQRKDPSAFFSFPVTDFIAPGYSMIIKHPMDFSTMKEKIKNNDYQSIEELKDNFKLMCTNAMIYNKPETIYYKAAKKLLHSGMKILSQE
Protocol: as §1, §2, §3

BRD8(1) = biological target: T10, BRD8(1) (Homo sapiens, UniProt Q9H0E9); assay: BromoKdMAX (BROMOscan, DiscoverX); format: binding
T10 construct: T7 phage strains displaying bromodomains were grown in parallel; purchased DiscoverX; host or cells: T7 phage in an E. coli host derived from the BL21 strain
T10 sequence (Q9H0E9 706-811 limits assumed): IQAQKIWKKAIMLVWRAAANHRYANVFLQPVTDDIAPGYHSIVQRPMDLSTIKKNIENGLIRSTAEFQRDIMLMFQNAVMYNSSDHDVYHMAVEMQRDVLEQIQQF
Protocol: as §1, §2, §3

BRD8(2) = biological target: T11, BRD8(2) (Homo sapiens, UniProt Q9H0E9); assay: BromoKdMAX (BROMOscan, DiscoverX); format: binding
T11 construct: T7 phage strains displaying bromodomains were grown in parallel; purchased DiscoverX; host or cells: T7 phage in an E. coli host derived from the BL21 strain
T11 sequence (Q9H0E9 1099-1207 limits assumed): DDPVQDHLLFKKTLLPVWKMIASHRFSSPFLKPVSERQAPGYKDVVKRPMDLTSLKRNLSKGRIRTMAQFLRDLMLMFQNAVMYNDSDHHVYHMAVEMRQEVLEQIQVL
Protocol: as §1, §2, §3

BRD9 = biological target: T12, BRD9 (Homo sapiens, UniProt Q9H8M2); assay: BromoKdMAX (BROMOscan, DiscoverX); format: binding
T12 construct: T7 phage strains displaying bromodomains were grown in parallel; purchased DiscoverX; host or cells: T7 phage in an E. coli host derived from the BL21 strain
T12 sequence (Q9H8M2 136-240 limits assumed): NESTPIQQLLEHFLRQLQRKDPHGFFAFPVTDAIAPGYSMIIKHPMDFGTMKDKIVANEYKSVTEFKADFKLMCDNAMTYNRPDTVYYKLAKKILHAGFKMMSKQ
Protocol: as §1, §2, §3

BRDT(1) = biological target: T13, BRDT(1) (Homo sapiens, UniProt Q58F21); assay: BromoKdMAX (BROMOscan, DiscoverX); format: binding
T13 construct: T7 phage strains displaying bromodomains were grown in parallel; purchased DiscoverX; host or cells: T7 phage in an E. coli host derived from the BL21 strain
Protocol: as §1, §2, §3

BRDT(1, 2) = biological target: T14, BRDT(1, 2) (Homo sapiens, UniProt Q58F21); assay: BromoKdMAX (BROMOscan, DiscoverX); format: binding
T14 construct: T7 phage strains displaying bromodomains were grown in parallel; purchased DiscoverX; host or cells: T7 phage in an E. coli host derived from the BL21 strain
Protocol: as §1, §2, §3

BRDT(2) = biological target: T15, BRDT(2) (Homo sapiens, UniProt Q58F21); assay: BromoKdMAX (BROMOscan, DiscoverX); format: binding
T15 construct: T7 phage strains displaying bromodomains were grown in parallel; purchased DiscoverX; host or cells: T7 phage in an E. coli host derived from the BL21 strain
Protocol: as §1, §2, §3

BRPF1 = biological target: T16, BRPF1 (Homo sapiens, UniProt P55201); assay: BromoKdMAX (BROMOscan, DiscoverX); format: binding
T16 construct: T7 phage strains displaying bromodomains were grown in parallel; purchased DiscoverX; host or cells: T7 phage in an E. coli host derived from the BL21 strain
T16 sequence (P55201 628-732 limits assumed): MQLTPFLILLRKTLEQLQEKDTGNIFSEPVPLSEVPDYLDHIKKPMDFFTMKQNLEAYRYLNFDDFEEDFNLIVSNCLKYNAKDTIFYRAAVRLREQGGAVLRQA
Protocol: as §1, §2, §3

BRPF3 = biological target: T17, BRPF3 (Homo sapiens, UniProt Q9ULD4); assay: BromoKdMAX (BROMOscan, DiscoverX); format: binding
T17 construct: T7 phage strains displaying bromodomains were grown in parallel; purchased DiscoverX; host or cells: T7 phage in an E. coli host derived from the BL21 strain
T17 sequence (Q9ULD4 589-693 limits assumed): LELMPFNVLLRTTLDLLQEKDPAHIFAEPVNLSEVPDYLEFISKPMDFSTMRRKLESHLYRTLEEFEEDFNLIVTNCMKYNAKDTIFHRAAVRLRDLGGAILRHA
Protocol: as §1, §2, §3

CECR2 = biological target: T18, CECR2 (Homo sapiens, UniProt Q9BXF3); assay: BromoKdMAX (BROMOscan, DiscoverX); format: binding
T18 construct: T7 phage strains displaying bromodomains were grown in parallel; purchased DiscoverX; host or cells: T7 phage grown in E. coli host derived from BL21
T18 sequence (Q9BXF3 434-538 limits assumed): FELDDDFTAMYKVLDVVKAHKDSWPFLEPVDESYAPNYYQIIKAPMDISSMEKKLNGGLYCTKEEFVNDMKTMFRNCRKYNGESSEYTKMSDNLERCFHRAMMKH
Protocol: as §1, §2, §3

FALZ = biological target: T19, FALZ (Homo sapiens, UniProt Q12830); assay: BromoKdMAX (BROMOscan, DiscoverX); format: binding; conditions: FALZ (BPTF)
T19 construct: T7 phage strains displaying bromodomains were grown in parallel; purchased DiscoverX; host or cells: T7 phage grown in E. coli host derived from BL21
Protocol: as §1, §2, §3

GCN5L2 = biological target: T20, GCN5L2 (Homo sapiens, UniProt Q92830); assay: BromoKdMAX (BROMOscan, DiscoverX); format: binding; conditions: GCN5L2 (KAT2A)
T20 construct: T7 phage strains displaying bromodomains were grown in parallel; purchased DiscoverX; host or cells: T7 phage grown in E. coli host derived from BL21
T20 sequence (Q92830 728-832 limits assumed): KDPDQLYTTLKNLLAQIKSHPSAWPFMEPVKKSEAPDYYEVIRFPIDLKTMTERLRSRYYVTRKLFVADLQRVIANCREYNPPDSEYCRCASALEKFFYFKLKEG
Protocol: as §1, §2, §3

PBRM1(2) = biological target: T21, PBRM1(2) (Homo sapiens, UniProt Q86U86); assay: BromoKdMAX (BROMOscan, DiscoverX); format: binding
T21 construct: T7 phage strains displaying bromodomains were grown in parallel; purchased DiscoverX; host or cells: T7 phage grown in E. coli host derived from BL21
T21 sequence (Q86U86 177-287 limits assumed): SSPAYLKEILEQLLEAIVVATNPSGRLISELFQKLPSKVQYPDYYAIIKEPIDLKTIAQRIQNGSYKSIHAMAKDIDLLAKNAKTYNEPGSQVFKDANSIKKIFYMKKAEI
Protocol: as §1, §2, §3

PBRM1(5) = biological target: T22, PBRM1(5) (Homo sapiens, UniProt Q86U86); assay: BromoKdMAX (BROMOscan, DiscoverX); format: binding
T22 construct: T7 phage strains displaying bromodomains were grown in parallel; purchased DiscoverX; host or cells: T7 phage grown in E. coli host derived from BL21
T22 sequence (Q86U86 653-763 limits assumed): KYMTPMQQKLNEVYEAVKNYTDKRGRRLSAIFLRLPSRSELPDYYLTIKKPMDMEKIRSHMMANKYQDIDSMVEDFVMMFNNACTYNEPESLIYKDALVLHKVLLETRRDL
Protocol: as §1, §2, §3

PCAF = biological target: T23, PCAF (Homo sapiens, UniProt Q92831); assay: BromoKdMAX (BROMOscan, DiscoverX); format: binding; conditions: PCAF (KAT2B)
T23 construct: T7 phage strains displaying bromodomains were grown in parallel; purchased DiscoverX; host or cells: T7 phage grown in E. coli host derived from BL21
T23 sequence (Q92831 723-827 limits assumed): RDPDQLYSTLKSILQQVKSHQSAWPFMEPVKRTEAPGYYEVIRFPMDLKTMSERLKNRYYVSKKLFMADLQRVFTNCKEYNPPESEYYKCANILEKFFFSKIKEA
Protocol: as §1, §2, §3

SMARCA2 = biological target: T24, SMARCA2 (Homo sapiens, UniProt P51531); assay: BromoKdMAX (BROMOscan, DiscoverX); format: binding
T24 construct: T7 phage strains displaying bromodomains were grown in parallel; purchased DiscoverX; host or cells: T7 phage grown in E. coli host derived from BL21
T24 sequence (P51531 1378-1506 limits assumed): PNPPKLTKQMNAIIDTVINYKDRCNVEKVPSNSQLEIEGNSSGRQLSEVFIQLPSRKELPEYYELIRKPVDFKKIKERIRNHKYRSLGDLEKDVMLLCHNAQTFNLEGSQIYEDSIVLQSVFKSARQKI
Protocol: as §1, §2, §3

SMARCA4 = biological target: T25, SMARCA4 (Homo sapiens, UniProt P51532); assay: BromoKdMAX (BROMOscan, DiscoverX); format: binding
T25 construct: T7 phage strains displaying bromodomains were grown in parallel; purchased DiscoverX; host or cells: T7 phage grown in E. coli host derived from BL21
T25 sequence (P51532 1453-1564 limits assumed): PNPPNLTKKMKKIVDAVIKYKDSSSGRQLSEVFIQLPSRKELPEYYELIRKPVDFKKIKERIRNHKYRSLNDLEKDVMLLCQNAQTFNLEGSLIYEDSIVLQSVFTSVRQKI
Protocol: as §1, §2, §3

TAF1(2) = biological target: T26, TAF1(2) (Homo sapiens, UniProt P21675); assay: BromoKdMAX (BROMOscan, DiscoverX); format: binding
T26 construct: T7 phage strains displaying bromodomains were grown in parallel; purchased DiscoverX; host or cells: T7 phage grown in E. coli host derived from BL21
T26 sequence (P21675 1519-1628 limits assumed): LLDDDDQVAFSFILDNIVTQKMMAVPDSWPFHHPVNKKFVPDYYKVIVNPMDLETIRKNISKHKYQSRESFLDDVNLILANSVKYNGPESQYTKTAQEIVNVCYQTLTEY
Protocol: as §1, §2, §3

TAF1L(2) = biological target: T27, TAF1L(2) (Homo sapiens, UniProt Q8IZX4); assay: BromoKdMAX (BROMOscan, DiscoverX); format: binding
T27 construct: T7 phage strains displaying bromodomains were grown in parallel; purchased DiscoverX; host or cells: T7 phage grown in E. coli host derived from BL21
T27 sequence (Q8IZX4 1517-1626 limits assumed): as the sequence (P21675 1519-1628 limits assumed) above, with V46M, M51V, V102I, L107I counted along it
Protocol: as §1, §2, §3

TRIM24(Bromo.) = biological target: T28, TRIM24(Bromo.) (Homo sapiens, UniProt O15164); assay: BromoKdMAX (BROMOscan, DiscoverX); format: binding
T28 construct: T7 phage strains displaying bromodomains were grown in parallel; purchased DiscoverX; host or cells: T7 phage grown in E. coli host derived from BL21
T28 sequence (O15164 899-1004 limits assumed): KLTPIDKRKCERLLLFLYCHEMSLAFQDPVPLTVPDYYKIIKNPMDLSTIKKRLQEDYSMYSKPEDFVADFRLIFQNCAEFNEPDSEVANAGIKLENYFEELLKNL
Protocol: as §1, §2, §3

TRIM24(PHD, Bromo.) = biological target: T29, TRIM24(PHD, Bromo.) (Homo sapiens, UniProt O15164); assay: BromoKdMAX (BROMOscan, DiscoverX); format: binding
T29 construct: TRIM24(PHD, Bromo.); purchased DiscoverX; host or cells: T7 phage grown in E. coli host derived from BL21
T29 sequence (O15164 824-1006 limits assumed): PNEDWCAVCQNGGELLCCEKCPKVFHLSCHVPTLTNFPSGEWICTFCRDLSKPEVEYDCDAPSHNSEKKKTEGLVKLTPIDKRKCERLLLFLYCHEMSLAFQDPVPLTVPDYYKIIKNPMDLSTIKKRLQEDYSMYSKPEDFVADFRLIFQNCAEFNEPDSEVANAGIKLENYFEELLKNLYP
Protocol: as §1, §2, §3

WDR9(2) = biological target: T30, WDR9(2) (Homo sapiens, UniProt Q9NSI6); assay: BromoKdMAX (BROMOscan, DiscoverX); format: binding; conditions: WDR9(2) (BRWD1)
T30 construct: T7 phage strains displaying bromodomains were grown in parallel; purchased DiscoverX; host or cells: T7 phage grown in E. coli host derived from BL21
T30 sequence (Q9NSI6 1313-1418 limits assumed): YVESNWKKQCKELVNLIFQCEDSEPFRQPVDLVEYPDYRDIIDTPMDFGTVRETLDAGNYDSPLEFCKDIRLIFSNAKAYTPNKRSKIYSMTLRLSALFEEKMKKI
Protocol: as §1, §2, §3

Structure (SMILES): COc1cncc(-c2cc(Nc3cccc(F)c3)nc([C@@H]3CC[C@H](C)N(C(C)=O)C3)n2)c1 [Compound 00004]
- EC50 (OPM-2): < 0.2 µM
- Kd (ATAD2A): > 10 µM
- Kd (ATAD2B): > 10 µM
- Kd (BAZ2A): > 10 µM
- Kd (BAZ2B): > 10 µM
- Kd (BRD1): > 10 µM
- Kd (BRD3(1)): > 10 µM
- Kd (BRD3(1, 2)): > 10 µM
- Kd (BRD3(2)): > 10 µM
- Kd (BRD7): > 10 µM
- Kd (BRD8(1)): > 10 µM
- Kd (BRD8(2)): > 10 µM
- Kd (BRD9): > 10 µM
- Kd (BRDT(1)): > 10 µM
- Kd (BRDT(1, 2)): > 10 µM
- Kd (BRDT(2)): > 10 µM
- Kd (BRPF1): > 10 µM
- Kd (BRPF3): > 10 µM
- Kd (CECR2): > 10 µM
- Kd (FALZ): > 10 µM
- Kd (GCN5L2): > 10 µM
- Kd (PBRM1(2)): > 10 µM
- Kd (PBRM1(5)): > 10 µM
- Kd (PCAF): > 10 µM
- Kd (SMARCA2): > 10 µM
- Kd (SMARCA4): > 10 µM
- Kd (TAF1(2)): > 10 µM
- Kd (TAF1L(2)): > 10 µM
- Kd (TRIM24(Bromo.)): > 10 µM
- Kd (TRIM24(PHD, Bromo.)): > 10 µM
- Kd (WDR9(2)): > 10 µM
